# Source: patent US6593301B1, “Use of steroidal saponins for the prophylaxis or treatment of dementia, and novel steroidal saponin compounds” (Institute of Radiation Medicine, priority 2000, dated 2003)
# Where two headings read alike, the source gives them in different places.
# Assays:
# cerebral basilar artery = test: Experiment on cerebral basilar artery (isolated artery on transducer, KCl as vasoconstrictor); settings: for Effect on the basilar artery (dilation): 50 μl solution added to the bath
# Method: Take 50 μl solutions to dissolved in 5 ml saline again. (2). Remove the cerebrum and cerebellum from the fresh brain, and get the middle part of the basilar artery (3). Adjust the transducer and amplifier to make pointer return to zero (4). Hang the basilar artery on the transducer and immerse it in the bath.
# [1] = Scavenging effects on hydroxyl free radicals (Fenton reaction, ESR)
# rat thoracic aorta = settings: 0.04 mM
# Description: Take thoracic aorta from rat, remove the connective tissue and blood, immerse the aorta into the Krebs-Henselelt liquid and ventilate oxygen, hang the aorta on the transducer, and assay its radial tension.
# [2] = tested on: cerebral blood flow of rat; settings: for Mean of rCBF / Rate of rCBF increase / rCBF Rat 1 / rCBF Rat 2 / rCBF Rat 3 / rCBF Rat 4: 50 μg/Kg intravenous
# Method: Method: Hydrogen-clearing method
# Instrument: LS-III Blood Flow Meter
# 1. Anesthetize the rat with 10% chloral hydrate, separate the general vein of thigh and intubate to prepare to inject Compound III.
# 2. Open a window in the parietal lobe of dermal epithelium with cranial drill and lay up hydrogen electrode.
# 3. After operation, collect the animal with the Blood Follow Meter and computer, steady for 30 minutes and begin to measure the rCBF (regional cerebral blood flow).
# [3] = tested on: nicotinic receptors (SY-SH5Y human neuroblastoma cell); settings: SY-SH5Y cells treated three days, 1 μM up to 100 μM
# Method: (§1) In the experiments, we used two different cell lines, SY-SH5Y and M10. SY-SH5Y is human neuroblastoma cell which expresses natural nicotinic and muscarinic receptors, and M10 cell expresses the recombinant a4b2 subtype of chicken nicotinic receptor. We treated both cell lines with Compound III for three days with different concentrations from 1 μM up to 100 μM, and measured the amount of nAChRs.
# [4] = tested on: recombinant a4b2 subtype of chicken nicotinic receptor (M10 cells); settings: M10 cells treated three days, 1 μM up to 100 μM
# Method: as §1
# [5] = tested on: rat hippocampus neuronal cells; test: Proliferation of rat hippocampus neuronal cells (MTT staining, OD); format: cell-based; settings: 7 days
# Method: 1. Get hippocampus neuronal cells from rat embryo and do preliminary cell culture.
# 2. Incubate the cells for 7 days at different concentration (3 or 5 parallel holes for each group).
# 3. Do MTT staining and measure OD value.
structure (smiles),measurement,setting,value
"CC1=C(CC[C@H](C)CO[C@@H]2O[C@H](CO)[C@@H](O)[C@H](O)[C@H]2O)O[C@H]2C[C@H]3[C@@H]4CC[C@@H]5C[C@@H](O[C@@H]6O[C@H](CO)[C@H](O)[C@H](O)[C@H]6O[C@@H]6O[C@H](CO)[C@@H](O)[C@H](O)[C@H]6O)CC[C@]5(C)[C@H]4CC[C@]3(C)[C@@H]12 [Compound I, (25S)-26-O-β-D-glucopyranosyl-5β-furost-20(22)-ene-3β,26-diol-3-O-β-D-glucopyranosyl(1→2)-β-D-galactopyranoside]",Effect on the basilar artery (dilation),cerebral basilar artery,no obvious effect
same,Scavenging rate,"[1]; 5 mg/ml, ESR, Fenton reaction",23.3%
same,Scavenging of hydroxyl free radicals produced by Fenton reaction (in words),[1]; Fe^2++H2O2,could scavenge
"CC1=C(CC[C@H](C)CO[C@@H]2O[C@H](CO)[C@@H](O)[C@H](O)[C@H]2O)O[C@H]2C[C@H]3[C@@H]4CC[C@@H]5C[C@@H](O[C@@H]6O[C@H](CO)[C@@H](O)[C@H](O)[C@H]6O[C@@H]6O[C@H](CO)[C@@H](O)[C@H](O)[C@H]6O)CC[C@]5(C)[C@H]4CC[C@]3(C)[C@@H]12 [Compound II, (25S)-26-O-β-D-glucopyranosyl-5β-furost-20(22)-ene-3β,26-diol-3-O-β-D-glucopyranosyl(1→2)-β-D-glucopyranoside]",Effect on the basilar artery (dilation),cerebral basilar artery,no obvious effect
same,Scavenging rate,"[1]; 5 mg/ml, ESR, Fenton reaction",40.0%
same,Scavenging of hydroxyl free radicals produced by Fenton reaction (in words),[1]; Fe^2++H2O2,could scavenge
"C[C@@H](CCC1(O)O[C@H]2C[C@H]3[C@@H]4CC[C@@H]5C[C@@H](O[C@@H]6O[C@H](CO)[C@H](O)[C@H](O)[C@H]6O[C@@H]6O[C@H](CO)[C@@H](O)[C@H](O)[C@H]6O)CC[C@]5(C)[C@H]4CC[C@]3(C)[C@H]2[C@@H]1C)CO[C@@H]1O[C@H](CO)[C@@H](O)[C@H](O)[C@H]1O (stereo partly drawn) [Compound III, (25S)-26-β-D-glucopyranosyl-22-hydroxy-5β-furost-3β,26-diol-3-0-β-D-glucopyranosyl(1→2)-β-D-galactopyranoside]",Effect on the basilar artery (dilation),cerebral basilar artery,dilated slightly
same,Contraction of the basilar artery when adding the vasoconstrictor KCl,cerebral basilar artery; after 50 μl compound added to the bath,did not contract again
same,Dilation of cerebral vascular and resistance to contraction caused by vasoconstrictor,cerebral basilar artery; at 10^−5 g/ml (0.01 mM),could dilate cerebral vascular and resist the contraction caused by vasoconstrictor
same,Effective concentration compared with positive Ligustrazine,cerebral basilar artery; same experimental conditions,two orders of magnitude lower
same,Inhibition of contraction of rat aorta caused by KCl,rat thoracic aorta,could restrain the contraction
same,Mean of rCBF,[2]; 1 min,141562.5 µL/min/mg
same,Rate of rCBF increase,[2]; 1 min,7.806%
same,rCBF Rat 1,[2]; 1 min,133300 µL/min/mg
same,rCBF Rat 2,[2]; 1 min,150050 µL/min/mg
same,rCBF Rat 3,[2]; 1 min,139550 µL/min/mg
same,rCBF Rat 4,[2]; 1 min,143350 µL/min/mg
same,Mean of rCBF,[2]; 10 min,149785 µL/min/mg
same,Rate of rCBF increase,[2]; 10 min,14.07%
same,rCBF Rat 1,[2]; 10 min,147990 µL/min/mg
same,rCBF Rat 2,[2]; 10 min,143410 µL/min/mg
same,rCBF Rat 3,[2]; 10 min,162100 µL/min/mg
same,rCBF Rat 4,[2]; 10 min,145640 µL/min/mg
same,Mean of rCBF,[2]; 20 min,148405 µL/min/mg
same,Rate of rCBF increase,[2]; 20 min,13.02%
same,rCBF Rat 1,[2]; 20 min,158460 µL/min/mg
same,rCBF Rat 2,[2]; 20 min,136330 µL/min/mg
same,rCBF Rat 3,[2]; 20 min,177590 µL/min/mg
same,rCBF Rat 4,[2]; 20 min,121240 µL/min/mg
same,Mean of rCBF,[2]; 30 min,163497.5 µL/min/mg
same,Rate of rCBF increase,[2]; 30 min,24.51%
same,rCBF Rat 1,[2]; 30 min,164610 µL/min/mg
same,rCBF Rat 2,[2]; 30 min,182960 µL/min/mg
same,rCBF Rat 3,[2]; 30 min,171420 µL/min/mg
same,rCBF Rat 4,[2]; 30 min,135000 µL/min/mg
same,Mean of rCBF,[2]; 40 min,164670 µL/min/mg
same,Rate of rCBF increase,[2]; 40 min,25.4%
same,rCBF Rat 1,[2]; 40 min,176900 µL/min/mg
same,rCBF Rat 2,[2]; 40 min,202460 µL/min/mg
same,rCBF Rat 3,[2]; 40 min,165940 µL/min/mg
same,rCBF Rat 4,[2]; 40 min,113380 µL/min/mg
same,Mean of rCBF,[2]; 50 min,166147.5 µL/min/mg
same,Rate of rCBF increase,[2]; 50 min,26.53%
same,rCBF Rat 1,[2]; 50 min,176770 µL/min/mg
same,rCBF Rat 2,[2]; 50 min,193570 µL/min/mg
same,rCBF Rat 3,[2]; 50 min,163080 µL/min/mg
same,rCBF Rat 4,[2]; 50 min,131170 µL/min/mg
same,Increase of the rCBF of rat,"[2]; 50 μg/kg in vivo (text summary, time not stated)",26.5%
same,Hemolysis,[2]; administered intravenously at the effective concentration (50 μg/kg),no hemolysis
same,Number of nAChRs,[3],significantly up-regulate
same,Number of nAChRs,[4],significantly up-regulate
same,Mean of OD,[5]; 0.1 μg/ml,0.0773
same,Proliferation rate,[5]; 0.1 μg/ml,23.88%
same,Mean of OD,[5]; 1 μg/ml,0.0663
same,Proliferation rate,[5]; 1 μg/ml,6.25%
same,Mean of OD,[5]; 10 μg/ml,0.0860
same,Proliferation rate,[5]; 10 μg/ml,37.82%
same,Mean of OD,[5]; 50 μg/ml,0.0807
same,Proliferation rate,[5]; 50 μg/ml,29.33%
same,Mean of OD,[5]; 100 μg/ml,0.0750
same,Proliferation rate,[5]; 100 μg/ml,20.19%
same,Mean of OD,[5]; 500 μg/ml,0.0903
same,Proliferation rate,[5]; 500 μg/ml,44.71%
same,Mean of OD,[5]; 1000 μg/ml,0.0673
same,Proliferation rate,[5]; 1000 μg/ml,7.853%
same,Inhibitory rate (hydroxyl free radicals),[1],56.7%
same,Scavenging effect relative to the other compounds,[1],most effective
same,Scavenging of hydroxyl free radicals produced by Fenton reaction (in words),[1],could scavenge
same,Scavenging rate,[1],56.7%
"COC1(CC[C@H](C)CO[C@@H]2O[C@H](CO)[C@@H](O)[C@H](O)[C@H]2O)O[C@H]2C[C@H]3[C@@H]4CC[C@@H]5C[C@@H](O[C@@H]6O[C@H](CO)[C@H](O)[C@H](O)[C@H]6O[C@@H]6O[C@H](CO)[C@@H](O)[C@H](O)[C@H]6O)CC[C@]5(C)[C@H]4CC[C@]3(C)[C@H]2[C@@H]1C (stereo partly drawn) [Compound IV, (25S)-26-0-β-D-glucopyranosyl-22-methoxy-5β-furost-3β,26-diol-3-0-β-D-glucopyranosyl(1→2)-β-D-galactopyranoside]",Effect on the basilar artery (dilation),cerebral basilar artery,no obvious effect
same,Scavenging of hydroxyl free radicals produced by Fenton reaction (in words),[1],could scavenge
same,Scavenging rate,[1],33.3%
